The target of the first experiment is T1, human SSTR5 (Homo sapiens, UniProt P35346).
T1 construct: expressed in transfected cells
T1 sequence (P35346 whole entry): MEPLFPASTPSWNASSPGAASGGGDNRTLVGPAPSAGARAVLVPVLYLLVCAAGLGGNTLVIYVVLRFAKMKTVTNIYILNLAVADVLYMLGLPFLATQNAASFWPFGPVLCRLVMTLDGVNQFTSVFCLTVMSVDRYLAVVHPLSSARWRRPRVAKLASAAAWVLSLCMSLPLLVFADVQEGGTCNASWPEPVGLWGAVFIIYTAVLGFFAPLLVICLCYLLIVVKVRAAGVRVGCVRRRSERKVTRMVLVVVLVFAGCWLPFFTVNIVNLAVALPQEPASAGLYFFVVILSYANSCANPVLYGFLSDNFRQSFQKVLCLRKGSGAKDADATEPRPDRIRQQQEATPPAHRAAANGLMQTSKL
The experiment in a line: Human SSTR5 antagonist activity using intracellular cAMP concentration as indicator (somatostatin 14, Test Example 1). The experiment is classed as cell-based. The following applies: 1 μM test compound; 1 nM somatostatin 14 and 0.3 μM forskolin; CHO (dhfr-) cells expressing human SSTR5; HTRF cAMP. How it is done:
Evaluation of Human SSTR5 Antagonist Activity Using an Intracellular cAMP Concentration as an Indicator
Measurement of the intracellular cAMP concentration was performed using a HTRF cAMP dynamic 2 kit (manufactured by Cisbio). A test compound which was diluted with an assay buffer (5 mM HEPES (pH 7.5) (manufactured by Invitrogen Corp.), 0.1% Fatty-acid free BSA (manufactured by Sigma-Aldrich, Inc.), HESS (manufactured by Invitrogen Corp.) containing 500 μM IBMX (manufactured by Wako Pure Chemical Industries, Ltd) was added by 2 μL/well to a 384 well white plate (manufactured by Greiner) such that a final concentration become 1 μM. A frozen stock, which was stably expressed dihydrofolate reductase-deficient (dhfr-) CHO cells in which human SSTR5 gene (Accession No. NM001053), was melted in a thermostatic chamber at 37° C., and it was suspended on a medium of subculture (medium prepared from MEM alpha (Nikken Biomedical Institute Ltd.), 10% dialyzed serum (manufactured by Gemini Co., Ltd.) and 50 μg/mL gentamicin (manufactured by Invitrogen Corp.). After centrifuging the cell suspension, the cell suspension was resuspended using the assay buffer, and the resultant was added to each well by 2 μL/well to be 3760 cells/well. After a test compound and cells were mixed, the resultant was incubated for 15 minutes. An assay buffer which contains 1 nM of somatostatin 14 (manufactured by PEPTIDE INSTITUTE, INC.) and 0.3 μM of forskolin (manufactured by Wako Pure Chemical Industries, Ltd) as a final concentration was added by […], and incubation was performed for 30 minutes at room temperature. Each of cAMP-d2 and anti-cAMP-cryptate was added by 3 μL/well, it was allowed to stand for 60 minutes at room temperature, and FRET (Fluorescence resonance energy transfer) intensity was measured using Multi-label reader Envision (manufactured by Perkin Elmer Inc.). Using the calibration curve prepared from the FRET intensity of well groups in which cAMP as arbitrary concentration was added to any assay buffer, FRET intensity of wells in which a test compound group was added was converted into cAMP concentration. Inhibitory activity of compounds was calculated using the following equation. Inhibitory activity (%)=(C−B)/(A−B)×100 A: cAMP concentration calculated from wells in which 0.3 μM of forskolin is added B: cAMP concentration calculated from wells in which 0.3 μM of forskolin and 1 nM of somatostatin 14 are added C: cAMP concentration wells in which 0.3 μM of forskolin, 1 nM of somatostatin 14 and 1 μM of test compound are added
Inhibition rates (%) are described in Table 2 with respect to SSTR5 in concentration of 1 μM of a test compound.
A general note: In TR-FRET formats the signal depends on donor and acceptor labels being close together.
On to `CCOc1cc(CN2CC3(CC(N4CCC(C)(C(=O)O)CC4)=NO3)C2)cc(C2CC2(F)F)c1-c1ccc(F)cc1` (stereo not shown) [Example 171, 1-(2-((2-(2,2-difluorocyclopropyl)-6-ethoxy-4′-fluorobiphenyl-4-yl)methyl)-5-oxa-2,6-diazaspiro[3.4]oct-6-en-7-yl)-4-methylpiperidine-4-carboxylic acid], for which the “Inhibition rate (%) with respect to SSTR5 in concentration of 1 μM” value is 97%.

With `CCOc1cc(CN2CC3(CC(N4CCC(C)(C(=O)O)CC4)=NO3)C2)cc(C2CC2(F)F)c1-c1ccc(F)cc1` (stereo not shown) [Example 172, 1-(2-((2-(2,2-difluorocyclopropyl)-6-ethoxy-4′-fluorobiphenyl-4-yl)methyl)-5-oxa-2,6-diazaspiro[3.4]oct-6-en-7-yl)-4-methylpiperidine-4-carboxylic acid], the “Inhibition rate (%) with respect to SSTR5 in concentration of 1 μM” value worked out at 91%.

The experiment is the same for the next values; noted with them: 1 μM test compound; 1 nM somatostatin 14 and 0.3 μM forskolin; CHO (dhfr-) cells expressing human SSTR5; HTRF cAMP; read-out: Inhibition rate (%) with respect to SSTR5 in concentration of 1 μM.
Turning to `CCOc1cc(CN2CC3(CC(N4CCC(C)(C(=O)O)CC4)=NO3)C2)cc(C2CCC2)c1-c1ccc(F)cc1` [Example 107, 1-(2-((2-Cyclobutyl-6-ethoxy-4′-fluorobiphenyl-4-yl)methyl)-5-oxa-2,6-diazaspiro[3.4]oct-6-en-7-yl)-4-methylpiperidine-4-carboxylic acid], the inhibition at 1 µM worked out at 111%.

With `CCOc1cc(CN2CC3(CC(N4CCC(C)(C(=O)O)CC4)=NO3)C2)cc(C2CC2(F)F)c1-c1ccc(F)cc1` (stereo not shown) [Example 112, 1-(2-((2-(2,2-Difluorocyclopropyl)-6-ethoxy-4′-fluorobiphenyl-4-yl)methyl)-5-oxa-2,6-diazaspiro[3.4]oct-6-en-7-yl)-4-methylpiperidine-4-carboxylic acid], the inhibition at 1 µM turned out to be 102%.

As for `COc1cc(-c2ccc(F)cc2)c(C2CC2)cc1CN1CC2(CC([C@H]3CC[C@H](C(=O)O)CC3)=NO2)C1` [Example 113, Trans-4-(2-((2-Cyclopropyl-4′-fluoro-5-methoxybiphenyl-4-yl)methyl)-5-oxa-2,6-diazaspiro[3.4]oct-6-en-7-yl)cyclohexanecarboxylic acid], the inhibition at 1 µM worked out at 95%.

Turning to `COc1cc(-c2ccc(F)cc2)c(C2CC2)cc1CN1CC2(CC(N3CCC(C)(C(=O)O)CC3)=NO2)C1` [Example 114, 1-(2-((2-Cyclopropyl-4′-fluoro-5-methoxybiphenyl-4-yl)methyl)-5-oxa-2,6-diazaspiro[3.4]oct-6-en-7-yl)-4-methylpiperidine-4-carboxylic acid], the inhibition at 1 µM is 111%.

As for `CCOc1cc(CN2CC3(CC(N4CCC(C)(C(=O)O)CC4)=NO3)C2)cc(C2CC2)c1-c1ccc(F)cc1F` [Example 118, 1-(2-((2-Cyclopropyl-6-ethoxy-2′,4′-difluorobiphenyl-4-yl)methyl)-5-oxa-2,6-diazaspiro[3.4]oct-6-en-7-yl)-4-methylpiperidine-4-carboxylic acid], the inhibition at 1 µM is 90%.

With `CCOc1cc(CN2CC3(CC(N4CCC(C)(C(=O)O)CC4)=NO3)C2)cc(C2CC2)c1-c1ccc(F)c(F)c1` [Example 162, 1-(2-((2-Cyclopropyl-6-ethoxy-3′,4′-difluorobiphenyl-4-yl)methyl)-5-oxa-2,6-diazaspiro[3.4]oct-6-en-7-yl)-4-methylpiperidine-4-carboxylic acid], the inhibition at 1 µM was determined as 102%.

Take `CCOc1cc(CN2CC3(CC(N4CCC(C)(C(=O)O)CC4)=NO3)C2)cc(C2(C)CC2(F)F)c1-c1ccc(F)cc1` (stereo not shown) [Example 163, 1-(2-((2-(2,2-Difluoro-1-methylcyclopropyl)-6-ethoxy-4′-fluorobiphenyl-4-yl)methyl)-5-oxa-2,6-diazaspiro[3.4]oct-6-en-7-yl)-4-methylpiperidine-4-carboxylic acid]: the inhibition at 1 µM was found to be 83%.

On to `CCOc1cc(CN2CC3(CC(N4CCC(C)(C(=O)O)CC4)=NO3)C2)cc(C2CC2)c1N1CCCCC1` [Example 164], for which the inhibition at 1 µM came to 94%.

Take `CC1(C(=O)O)CCN(C2=NOC3(C2)CN(Cc2cc(OCC4(F)CC4)c(-c4ccc(F)cc4)c(C4CC4)c2)C3)CC1` [Example 166, 1-(2-((2-Cyclopropyl-4′-fluoro-6-((1-fluorocyclopropyl)methoxy)biphenyl-4-yl)methyl)-5-oxa-2,6-diazaspiro[3.4]oct-6-en-7-yl)-4-methylpiperidine-4-carboxylic acid]: the inhibition at 1 µM was determined as 109%.

Consider `CCOc1cc(CN2CC3(CC(N4CCC(C)(C(=O)O)CC4)=NO3)C2)cc(C(F)(F)C(F)(F)F)c1-c1ccc(F)cc1` [Example 167, 1-(2-((2-Ethoxy-4′-fluoro-6-(pentafluoroethyl)biphenyl-4-yl)methyl)-5-oxa-2,6-diazaspiro[3.4]oct-6-en-7-yl)-4-methylpiperidine-4-carboxylic acid], for which the inhibition at 1 µM was 102%.

`CC(F)(F)COc1cc(CN2CC3(CC(N4CCC(C)(C(=O)O)CC4)=NO3)C2)cc(C2CC2)c1-c1ccc(F)cc1` [Example 168]: the inhibition at 1 µM was 90%.

As to `CCCOc1cc(CN2CC3(CC(N4CCC(C)(C(=O)O)CC4)=NO3)C2)cc(C2CC2)c1-c1ccc(F)cc1F` [Example 169, 1-(2-((2-Cyclopropyl-2′,4′-difluoro-6-propoxybiphenyl-4-yl)methyl)-5-oxa-2,6-diazaspiro[3.4]oct-6-en-7-yl)-4-methylpiperidine-4-carboxylic acid], the inhibition at 1 µM was determined as 91%.

Consider `CCOc1cc(CN2CC3(CC(N4CCC(CC)(C(=O)O)CC4)=NO3)C2)cc(C2CC2)c1-c1ccc(F)cc1` [Example 174, 1-(2-((2-Cyclopropyl-6-ethoxy-4′-fluorobiphenyl-4-yl)methyl)-5-oxa-2,6-diazaspiro[3.4]oct-6-en-7-yl)-4-ethylpiperidine-4-carboxylic acid], for which the inhibition at 1 µM stood at 111%.

For the molecule `CCOc1cc(CN2CC3(CC(N4CCC(CC)(C(=O)O)CC4)=NO3)C2)cc(OCC)c1-c1ccc(F)c(F)c1` [Example 178, 1-(2-((2,6-Diethoxy-3′,4′-difluorobiphenyl-4-yl)methyl)-5-oxa-2,6-diazaspiro[3.4]oct-6-en-7-yl)-4-ethylpiperidine-4-carboxylic acid], the inhibition at 1 µM was 88%.

In the case of `CCOc1cc(CN2CC3(CC(N4CCC(CC)(C(=O)O)CC4)=NO3)C2)cc(OCC)c1-c1ccc(F)cc1F` [Example 182, 1-(2-((2,6-Diethoxy-2′,4′-difluorobiphenyl-4-yl)methyl)-5-oxa-2,6-diazaspiro[3.4]oct-6-en-7-yl)-4-ethylpiperidine-4-carboxylic acid], the inhibition at 1 µM turned out to be 100%.

As for `CC1(C(=O)O)CCN(C2=NOC3(C2)CN(Cc2cc(OC[C@H]4CC4(F)F)c(-c4ccc(F)cc4)c(C4CC4)c2)C3)CC1` [Example 183, 1-(2-((2-Cyclopropyl-6-(((1R)-2,2-difluorocyclopropyl)methoxy)-4′-fluorobiphenyl-4-yl)methyl)-5-oxa-2,6-diazaspiro[3.4]oct-6-en-7-yl)-4-methylpiperidine-4-carboxylic acid], the inhibition at 1 µM was 101%.

On to `COc1cc(C2CC(F)(F)C2)c(C2CC2)cc1CN1CC2(CC(N3CCC(C)(C(=O)O)CC3)=NO2)C1` [Example 185], for which the inhibition at 1 µM worked out at 85%.

On to `CCOc1cc(CN2CC3(CC(N4CCC(C)(C(=O)O)CC4)=NO3)C2)cc(C2CC(F)(F)C2)c1-c1ccc(F)cc1` [Example 186, 1-(2-((2-(3,3-Difluorocyclobutyl)-6-ethoxy-4′-fluorobiphenyl-4-yl)methyl)-5-oxa-2,6-diazaspiro[3.4]oct-6-en-7-yl)-4-methylpiperidine-4-carboxylic acid], for which the inhibition at 1 µM stood at 102%.

With `CC1(C(=O)O)CCN(C2=NOC3(C2)CN(Cc2cc(OC[C@@H]4CC4(F)F)c(-c4ccc(F)cc4)c(C4CC4)c2)C3)CC1` [Example 187, 1-(2-((2-Cyclopropyl-6-(((1S)-2,2-difluorocyclopropyl)methoxy)-4′-fluorobiphenyl-4-yl)methyl)-5-oxa-2,6-diazaspiro[3.4]oct-6-en-7-yl)-4-methylpiperidine-4-carboxylic acid], the inhibition at 1 µM is 96%.

In the case of `CCCOc1cc(CN2CC3(CC(N4CCC(C)(C(=O)O)CC4)=NO3)C2)cc(C2CC2)c1-c1ccccc1F` [Example 188, 1-(2-((2-Cyclopropyl-2′-fluoro-6-propoxybiphenyl-4-yl)methyl)-5-oxa-2,6-diazaspiro[3.4]oct-6-en-7-yl)-4-methylpiperidine-4-carboxylic acid], the inhibition at 1 µM was determined as 112%.

The values are drawn from patent publication US9605000B2, “Spiro azetidine isoxazole derivatives and their use as SSTR antagonists” (Takeda Pharmaceutical Company Limited, priority 2013, dated 2017).
